Assay results published in patent US11034685B2, “Aminopyridine derivatives as TAM family kinase inhibitors” (SignalChem Lifesciences Corporation, priority 2013, dated 2021).

Assays:
Type in all cases: biochemical
[1] = target: T1, Recombinant human Tyro3 (455-end) (Homo sapiens, UniProt Q06418); assay: Kinase enzymatic activity assay ([33P]-ATP phosphate transfer), Tyro3; settings: inhibitory activity on Tyro3; class symbols
T1 construct: GST (N); made in house; host or cells: Sf9 insect cells (baculovirus)
T1 sequence (Q06418 455-890 limits assumed): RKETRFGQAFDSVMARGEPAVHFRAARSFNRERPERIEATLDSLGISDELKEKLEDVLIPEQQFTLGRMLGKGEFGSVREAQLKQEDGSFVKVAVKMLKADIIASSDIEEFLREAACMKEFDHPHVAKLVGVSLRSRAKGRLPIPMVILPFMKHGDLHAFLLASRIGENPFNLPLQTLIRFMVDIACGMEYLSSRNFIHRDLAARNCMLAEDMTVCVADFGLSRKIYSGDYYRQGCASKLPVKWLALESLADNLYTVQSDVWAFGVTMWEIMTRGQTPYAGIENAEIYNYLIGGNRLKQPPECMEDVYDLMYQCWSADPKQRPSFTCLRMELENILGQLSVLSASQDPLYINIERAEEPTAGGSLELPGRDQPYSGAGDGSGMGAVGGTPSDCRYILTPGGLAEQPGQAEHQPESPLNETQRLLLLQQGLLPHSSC
Procedure: (§1) Preparation of Active Recombinant Kinase Proteins:
(§2) Recombinant human Tyro3 (455-end, the gene accession number NM_006293), human Axl (473-end, the gene accession number NM_021913) and human Mer (578-872, the gene accession number NM_006343) were independently expressed by baculovirus in Sf9 insect cells using an N-terminal GST tag. The recombinant proteins were stored at −70° C. in a medium containing 50 mM Tris-HCl, pH 7.5, 150 mM NaCl, 10 mM glutathione, 0.1 mM EDTA, 0.25 mM DTT, 0.1 mM PMSF and 25% glycerol. The recombinant proteins were aliquoted into smaller quantities after centrifugation to avoid repeated handling and multiple freeze/thaw cycles for the most favorable performance.
(§3) Preparation of Assay Reagents:
(§4) Kinase Assay Buffer: This buffer solution consisted of the following components: 25 mM MOPS, pH 7.2, 12.5 mM β-glycerol-phosphate, 25 mM MgCl2, 5 mM EGTA, 2 mM EDTA and DTT 0.25 mM which was added prior to use.
(§5) Kinase Dilution Buffer: Kinase Assay Buffer was diluted at a 1:4 ratio (5× dilution) with distilled water.
(§6) [^33P]-ATP assay cocktail: In a designated radioactive working area, a 250 μM [^33P]-ATP assay cocktail was prepared by the addition of the following components: 150 μL of 10 mM ATP stock solution, 100 μL [^33P]-ATP (1 mci/100 μL), 5.75 mL of kinase assay buffer. This solution was stored in 1 mL aliquots at −20 OC.
(§7) ATP stock solution (10 mM): The ATP stock solution was prepared by dissolving 55 mg of ATP in 10 mL of kinase assay buffer. It was stored in 200 μL aliquots at −20° C.
(§8) Active Kinase Stock Solution: The active recombinant kinase protein (0.1 μg/μL) was diluted with Kinase Dilution Buffer and the activity was assayed using a serial dilution method. The specific activity is expressed in nmoL/min/mg.
(§9) Substrates: poly(4:1 glu:tyr) is the substrate used for each kinase Tyro3, Axl and Mer: The peptide substrate was dissolved in water to give the final concentration of 1 mg/mL.
(§10) Test compound solution: Test compound was dissolved in DMSO to obtain a 10 mM solution. The assay solution was prepared by adding 5 μL of this solution to […] of 10% DMSO/water to obtain the final concentration of 50 μM.
(§11) The enzymatic activity of all three kinases was determined as follows. Using a 96-well plate, the wells were divided into three categories: Blank wells, […] and Test wells. In Test wells, 5 μL of the test compound solution and 5 μL of the substrate solution were added. In Control wells, 5 μL of 10% DMSO/water and 5 μL of the substrate solution were added. In Blank wells, 10 μL of 10% DMSO/water was added. To each well was added 10 μL of Active Kinase Stock Solution to make up the volume in each well to 20 μL. All test samples, controls and blanks were run in duplicate. The reaction was initiated by the addition of 5 μL of [^33P]-ATP assay cocktail, bringing the final volume up to 25 μL in every well. The mixture was incubated at room temperature for 30 minutes. The reaction was terminated by transferring 10 μL of the reaction mixture into a Millipore MultiScreen filter plate (cat. number MSPHN6B50). The filter plate was washed in a 1% phosphoric acid solution with constant gentle shaking for 15 minutes and this step was repeated once. After the plate was dried in air, scintillation fluid was added to each well and the radioactivity in each well in CPM was counted by a Microbeta TriLux. The corrected CPM in each test well was determined by subtracting the average value of Blank well values. Percentage of inhibition of the kinase enzymatic activity by the test compound was determined using the following formula: […]
(§12) The IC50 values were determined in a similar way following a serial dilution of the test compound. The percentage of inhibition at each concentration was calculated following the above formula. The IC50 was estimated from the curve of % Inhibition against Concentration in log unit using Prism 5, version 5.01.

human Axl (473-end) = target: T2, human Axl (473-end) (Homo sapiens, UniProt P30530); assay: Kinase enzymatic activity assay ([33P]-ATP phosphate transfer), Axl; settings: inhibitory activity on Axl; class symbols
T2 construct: GST (N); made in house; host or cells: Sf9 insect cells (baculovirus)
T2 sequence (P30530 473-894 limits assumed): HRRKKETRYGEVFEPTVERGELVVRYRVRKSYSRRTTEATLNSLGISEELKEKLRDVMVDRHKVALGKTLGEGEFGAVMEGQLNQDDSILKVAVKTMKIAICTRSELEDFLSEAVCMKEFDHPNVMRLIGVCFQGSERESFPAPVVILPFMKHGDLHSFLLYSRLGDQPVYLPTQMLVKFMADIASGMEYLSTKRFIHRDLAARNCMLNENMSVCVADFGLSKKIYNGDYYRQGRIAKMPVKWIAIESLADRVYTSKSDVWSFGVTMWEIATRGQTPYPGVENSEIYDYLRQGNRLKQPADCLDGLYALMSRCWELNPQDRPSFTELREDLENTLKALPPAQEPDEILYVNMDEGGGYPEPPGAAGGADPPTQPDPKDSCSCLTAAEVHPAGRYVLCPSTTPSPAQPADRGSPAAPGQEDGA
Procedure: as §1, §2, §3, §4, §5, §6, §7, §8, §9, §10, §11, §12

human Mer (578-872) = target: T3, human Mer (578-872) (Homo sapiens, UniProt Q12866); assay: Kinase enzymatic activity assay ([33P]-ATP phosphate transfer), Mer; settings: inhibitory activity on Mer; class symbols
T3 construct: GST (N); made in house; host or cells: Sf9 insect cells (baculovirus)
T3 sequence (Q12866 578-872): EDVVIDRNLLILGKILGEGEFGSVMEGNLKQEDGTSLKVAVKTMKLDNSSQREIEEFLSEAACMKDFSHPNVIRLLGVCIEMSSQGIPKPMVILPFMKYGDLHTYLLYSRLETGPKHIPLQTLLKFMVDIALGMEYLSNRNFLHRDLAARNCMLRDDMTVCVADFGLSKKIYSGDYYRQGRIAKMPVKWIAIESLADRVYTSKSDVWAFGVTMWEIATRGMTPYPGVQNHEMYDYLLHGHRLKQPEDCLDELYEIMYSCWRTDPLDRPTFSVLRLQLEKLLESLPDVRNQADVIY
Procedure: as §1, §2, §3, §4, §5, §6, §7, §8, §9, §10, §11, §12

| Structure (SMILES) | IC50 [1] | IC50 (human Axl (473-end)) | IC50 (human Mer (578-872)) |
| --- | --- | --- | --- |
| CCCCCCCCCCCCN1CCC(n2cc(-c3cnc(N)c(-c4nc(-c5c(Cl)cccc5Cl)no4)c3)cn2)CC1 [3-(3-(2,6-dichlorophenyl)-1,2,4-oxadiazol-5-yl)-5-(1-(1-dodecylpiperidin-4-yl)-1H-pyrazol-4-yl)pyridin-2-amine] | < 500 nM | 1000 to 10000 nM | < 500 nM |
| Nc1ncc(-c2cn[nH]c2)cc1-c1nnc(-c2cc(F)ccc2F)o1 [3-(5-(2,5-difluorophenyl)-1,3,4-oxadiazol-2-yl)-5-(1H-pyrazol-4-yl)pyridin-2-amine] | < 500 nM | < 500 nM | 1000 to 10000 nM |
| Nc1ncc(-c2cnn(C3CCNCC3)c2)cc1-c1nnc(-c2c(Cl)ccc(F)c2Cl)o1 [3-(5-(2,6-dichloro-3-fluorophenyl)-1,3,4-oxadiazol-2-yl)-5-(1-(piperidin-4-yl)-1H-pyrazol-4-yl)pyridin-2-amine] | < 500 nM | < 500 nM | < 500 nM |
| CCCCCCCCCCCCN1CCC(n2cc(-c3cnc(N)c(-c4nnc(-c5c(Cl)cccc5Cl)o4)c3)cn2)CC1 [3-(5-(2,6-dichlorophenyl)-1,3,4-oxadiazol-2-yl)-5-(1-(1-dodecylpiperidin-4-yl)-1H-pyrazol-4-yl)pyridin-2-amine] | 500 to 1000 nM | 1000 to 10000 nM | 1000 to 10000 nM |
| CCN1CCC(n2cc(-c3cnc(N)c(-c4nnc(-c5c(Cl)cccc5Cl)o4)c3)cn2)CC1 [3-(5-(2,6-dichlorophenyl)-1,3,4-oxadiazol-2-yl)-5-(1-(1-ethylpiperidin-4-yl)-1H-pyrazol-4-yl)pyridin-2-amine] | < 500 nM | < 500 nM | < 500 nM |
| CN1CCC(n2cc(-c3cnc(N)c(-c4nnc(-c5c(Cl)cccc5Cl)o4)c3)cn2)CC1 [3-(5-(2,6-dichlorophenyl)-1,3,4-oxadiazol-2-yl)-5-(1-(1-methylpiperidin-4-yl)-1H-pyrazol-4-yl)pyridin-2-amine] | < 500 nM | < 500 nM | < 500 nM |
| Nc1ncc(-c2ccn(C3CCNCC3)c2)cc1-c1nnc(-c2c(Cl)cccc2Cl)o1 [3-(5-(2,6-dichlorophenyl)-1,3,4-oxadiazol-2-yl)-5-(1-(piperidin-4-yl)-1H-pyrrol-3-yl)pyridin-2-amine] | < 500 nM | < 500 nM | < 500 nM |
| Nc1ncc(-c2cn[nH]c2)cc1-c1nnc(-c2c(Cl)cccc2Cl)o1 [3-(5-(2,6-dichlorophenyl)-1,3,4-oxadiazol-2-yl)-5-(1H-pyrazol-4-yl)pyridin-2-amine] | < 500 nM | < 500 nM | < 500 nM |

Continued, values first:

| IC50 [1] | IC50 (human Axl (473-end)) | IC50 (human Mer (578-872)) | Structure (SMILES) |
| --- | --- | --- | --- |
| < 500 nM | < 500 nM | < 500 nM | CCN1CCC(n2cc(-c3cnc(N)c(-c4nc(-c5c(Cl)cccc5Cl)no4)c3)cn2)CC1 [3-(3-(2,6-dichlorophenyl)-1,2,4-oxadiazol-5-yl)-5-(1-(1-ethylpiperidin-4-yl)-1H-pyrazol-4-yl)pyridin-2-amine] |
| < 500 nM | < 500 nM | < 500 nM | CN1CCC(n2cc(-c3cnc(N)c(-c4nc(-c5c(Cl)cccc5Cl)no4)c3)cn2)CC1 [3-(3-(2,6-dichlorophenyl)-1,2,4-oxadiazol-5-yl)-5-(1-(1-methylpiperidin-4-yl)-1H-pyrazol-4-yl)pyridin-2-amine] |
| < 500 nM | < 500 nM | < 500 nM | Nc1ncc(-c2cnn(C3CCNCC3)c2)cc1-c1nc(-c2c(Cl)cccc2Cl)no1 [3-(3-(2,6-dichlorophenyl)-1,2,4-oxadiazol-5-yl)-5-(1-(piperidin-4-yl)-1H-pyrazol-4-yl)pyridin-2-amine] |
| < 500 nM | 1000 to 10000 nM | 1000 to 10000 nM | Nc1ncc(-c2cnn(C3CCOCC3)c2)cc1-c1nc(-c2c(Cl)cccc2Cl)no1 [3-(3-(2,6-dichlorophenyl)-1,2,4-oxadiazol-5-yl)-5-(1-(tetrahydro-2H-pyran-4-yl)-1H-pyrazol-4-yl)pyridin-2-amine] |
| < 500 nM | < 500 nM | < 500 nM | Nc1ncc(-c2cnn(C3CCNCC3)c2)cc1-c1nc(-c2ccccc2)no1 [3-(3-phenyl-1,2,4-oxadiazol-5-yl)-5-(1-(piperidin-4-yl)-1H-pyrazol-4-yl)pyridin-2-amine] |
| > 10000 nM | > 10000 nM | > 10000 nM | Nc1ncc(-c2cnn(C3CCOCC3)c2)cc1-c1nc(-c2ccccc2)no1 [3-(3-phenyl-1,2,4-oxadiazol-5-yl)-5-(1-(tetrahydro-2H-pyran-4-yl)-1H-pyrazol-4-yl)pyridin-2-amine] |
| 1000 to 10000 nM | 500 to 1000 nM | 1000 to 10000 nM | Nc1ncc(-c2cn[nH]c2)cc1-c1nc(-c2ccccc2)no1 [3-(3-phenyl-1,2,4-oxadiazol-5-yl)-5-(1H-pyrazol-4-yl)pyridin-2-amine] |
| < 500 nM | < 500 nM | 500 to 1000 nM | Nc1ncc(-c2cnn(C3CCNCC3)c2)cc1-c1noc(-c2cc(Cl)ccc2Cl)n1 [3-(5-(2,5-dichlorophenyl)-1,2,4-oxadiazol-3-yl)-5-(1-(piperidin-4-yl)-1H-pyrazol-4-yl)pyridin-2-amine] |
| < 500 nM | < 500 nM | < 500 nM | Nc1ncc(-c2cnn(C3CCOCC3)c2)cc1-c1nnc(-c2c(Cl)cccc2Cl)o1 [3-(5-(2,6-dichlorophenyl)-1,3,4-oxadiazol-2-yl)-5-(1-(tetrahydro-2H-pyran-4-yl)-1H-pyrazol-4-yl)pyridin-2-amine] |
